Experiments:
[1] = Entrapment of active agent in PLGA beads with different anti-solvents, amount retained by HPLC and/or NMR; assay type: physicochemical; design: % active agent retained in solid beads: concentration or dose not given beside the values; conditions: for % active agent retained in solid beads: 50:50 PLGA P2191 beads
Procedure: The entrapment of pharmaceutically active compound was investigated to determine the effect of using different anti-solvents.
The general methodology described above was used. Leuprolide acetate dissolved in DMSO/PLGA mixture at between 1-5 mg/ml of solution. The 50:50 lactide/glycolide polymer P2191 used in Example 3 was used in this Example, at a concentration of 10% w/v.
The flow rates were as used in Example 1. On entering the cooling part of the device, the functional fluid formed frozen droplets. Desolvation of the frozen droplets caused the formation of solid beads.
Various anti-solvents were investigated to determine the effect of the anti-solvent on the amount of active agent (leuprolide acetate) retained in the beads. HPLC and/or NMR were used to determine the amount of leuprolide acetate retained.

[2] = Dissolution in warm water of particles precipitated from 10% w/v aqueous solution added dropwise to ethanol; assay type: physicochemical; conditions: particles/precipitate formed in ethanol from 10% w/v solution in water
Procedure: It is anticipated that such droplets may be of particular use in assays, since the saccharide would be readily soluble in water or aqueous solution. Solutions of 10% w/v of mannitol and dextran in water were prepared. The solutions were then added dropwise to ethanol. The dextran solution produced amorphous particles in ethanol. […] It is anticipated that a solution comprising both mannitol and dextran may be beneficial in that dextran appears to be suitable for forming discrete particles and mannitol may well be a suitable bulking agent. Furthermore, the mannitol may give the beads a more manageable consistency. Attempts were made to make solid beads from the polyol solutions using the apparatus of FIGS. 1-4. […] It is thought that further cooling of the apparatus is required in order to freeze the droplets. This may be achieved, for example, by improving the cooling capability of the cooler. A solution of 10% w/v of mannitol in dimethyl sulphoxide (DMSO) was prepared. […] It is therefore anticipated that droplets made from this solution would freeze using the apparatus of FIGS. 1 to 4, and that solvent may be extracted from the frozen droplets using an anti-solvent, such as ethanol. As mentioned above, it is anticipated that the saccharide-based droplets may be used in assays. […]

| % active agent retained in solid beads ([1]; anti-solvent Ethanol and pentanol) | % active agent retained in solid beads ([1]; anti-solvent Heptanol (batch 1)) | % active agent retained in solid beads ([1]; anti-solvent Octanol:ethanol (80:20)) | % active agent retained in solid beads ([1]; anti-solvent Octanol:ethanol (90:10)) | % active agent retained in solid beads ([1]; anti-solvent Pentane) | % active agent retained in solid beads ([1]; anti-solvent Pentanol) | retention of the active ([1]; lactide/glycolide polymer as bead polymer, various C3 to C8 alcohols as anti-solvent) | dissolution in warm water [2] | Compound |
| --- | --- | --- | --- | --- | --- | --- | --- | --- |
| 63% | 78% | 76% | 84% | 94% | 92% | 60 to 95% |  | CCNC(=O)[C@@H]1CCCN1C(=O)[C@H](CCCNC(=N)N)NC(=O)[C@H](CC(C)C)NC(=O)[C@@H](CC(C)C)NC(=O)[C@H](Cc1ccc(O)cc1)NC(=O)[C@H](CO)NC(=O)[C@H](Cc1c[nH]c2ccccc12)NC(=O)[C@H](Cc1c[nH]cn1)NC(=O)[C@@H]1CCC(=O)N1 [leuprolide acetate, Leuprolide acetate] |
|  |  |  |  |  |  |  | dissolved in warm water | OC[C@@H](O)[C@@H](O)[C@H](O)[C@H](O)CO [mannitol] |
|  |  |  |  |  |  |  | readily dissolved in warm water | dextran |

From patent publication US9656228B2, “Device and method for making solid beads” (Midatech Pharma (Wales) Limited, priority 2008, dated 2017)
